# Results reported in patent US20250145594A1, “MODULATORS OF THE INTEGRATED STRESS PATHWAY” (Calico Life Sciences LLC, priority 2020, published 2025).
# Test system: ATF4 luciferase reporter in HEK293T cells
# Test: ATF4-Luc assay (in vitro model of VWMD)
# Assay type: cell-based, human
# Conditions: Homo sapiens, HEK-293T, 7 h, HEK293T cells carrying the ATF4 luciferase reporter, 1 μg/mL tunicamycin, One Glo luminescence
# Summary of the method: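 Tunicamycin (1 μg/mL) stress with co-added compound for 7 hours in HEK293T cells stably carrying an ATF4 5′-UTR–luciferase reporter. EC50 values come from the luminescent signal (One Glo).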
row,Structure (SMILES),EC50 [nM]
1,"O=C(NC12CC(n3ccc([C@H]4C[C@@H](OC(F)(F)F)C4)n3)(C1)C2)[C@H]1C[C@@H](O)c2cc(Cl)ccc2O1 [Compound 314, (2R,4R)-6-chloro-4-hydroxy-N-(3-{3-[cis-3-(trifluoromethoxy)cyclobutyl]-1H-pyrazol-1-yl}bicyclo[1.1.1]pentan-1-yl)-3,4-dihydro-2H-1-benzopyran-2-carboxamide]",50 to 250
2,"O=C(NC12CC(n3cnc(C(=O)N4CC[C@@H](OC(F)(F)F)C4)c3)(C1)C2)[C@H]1C[C@@H](O)c2cc(Cl)ccc2O1 [Compound 321, (2R,4R)-6-chloro-4-hydroxy-N-(3-{4-[(3R)-3-(trifluoromethoxy)pyrrolidine-1-carbonyl]-1H-imidazol-1-yl}bicyclo[1.1.1]pentan-1-yl)-3,4-dihydro-2H-1-benzopyran-2-carboxamide]",10 to 50
3,"O=C(NC12CC(c3ccc(C(=O)N4CC(OC(F)(F)F)C4)nc3)(C1)C2)[C@H]1C[C@@H](O)c2cc(Cl)ccc2O1 [Compound 536, (2R,4R)-6-chloro-4-hydroxy-N-(3-{6-[3-(trifluoromethoxy)azetidine-1-carbonyl]pyridin-3-yl}bicyclo[1.1.1]pentan-1-yl)-3,4-dihydro-2H-1-benzopyran-2-carboxamide]",< 10
4,"O=C1C[C@H](C(=O)N[C@H]2C[C@H]3CC[C@@H](C2)N3CCCOc2ccc(Cl)cc2)Oc2ccc(Cl)cc21 [Compound 101, (2R)-6-chloro-N-{(1R,3r,5S)-8-[3-(4-chlorophenoxy)propyl]-8-azabicyclo[3.2.1]octan-3-yl}-4-oxo-3,4-dihydro-2H-1-benzopyran-2-carboxamide]",> 2000
5,"O=C(NC12CC(n3cc(OCCCC(F)(F)F)cn3)(C1)C2)[C@H]1CC(O)c2cc(Cl)c(F)cc2O1 (stereo in doubt) [Compound 464, (2R,4R)-6-chloro-7-fluoro-4-hydroxy-N-{3-[4-(4,4,4-trifluorobutoxy)-1H-pyrazol-1-yl]bicyclo[1.1.1]pentan-1-yl}-3,4-dihydro-2H-1-benzopyran-2-carboxamide]",< 10
6,"O=C(NC12CC(n3cc(C(=O)N4CC[C@@H](OC(F)(F)F)C4)cn3)(C1)C2)[C@H]1C[C@@H](O)c2cc(Cl)ccc2O1 [Compound 370, (2R,4R)-6-chloro-4-hydroxy-N-(3-{4-[(3R)-3-(trifluoromethoxy)pyrrolidine-1-carbonyl]-1H-pyrazol-1-yl}bicyclo[1.1.1]pentan-1-yl)-3,4-dihydro-2H-1-benzopyran-2-carboxamide]",10 to 50
7,"O=C(NC12CC(n3cc(C(=O)N4CC(COC(F)(F)F)C4)cn3)(C1)C2)[C@H]1C[C@@H](O)c2cc(F)c(F)cc2O1 [Compound 374, (2R,4R)-6,7-difluoro-4-hydroxy-N-[3-(4-{3-[(trifluoromethoxy)methyl]azetidine-1-carbonyl}-1H-pyrazol-1-yl)bicyclo[1.1.1]pentan-1-yl]-3,4-dihydro-2H-1-benzopyran-2-carboxamide]",50 to 250
8,"O=C(NC12CC(n3cc4cc(COCC(F)(F)F)ccc4n3)(C1)C2)[C@H]1C[C@@H](O)c2cc(Cl)c(F)cc2O1 [Compound 651, (2R,4R)-6-chloro-7-fluoro-4-hydroxy-N-(3-{5-[(2,2,2-trifluoroethoxy)methyl]-2H-indazol-2-yl}bicyclo[1.1.1]pentan-1-yl)-3,4-dihydro-2H-1-benzopyran-2-carboxamide]",< 10
9,"O=C(NC12CC(n3cc(OCCOC(F)(F)F)cn3)(C1)C2)[C@H]1C[C@@H](O)c2cc(C(F)(F)F)c(F)cc2O1 [Compound 483, (2R,4R)-7-fluoro-4-hydroxy-N-(3-{4-[2-(trifluoromethoxy)ethoxy]-1H-pyrazol-1-yl}bicyclo[1.1.1]pentan-1-yl)-6-(trifluoromethyl)-3,4-dihydro-2H-1-benzopyran-2-carboxamide]",< 10
10,"O=C(NC12CCC(n3cc(-c4ccc(C(F)(F)F)cn4)cn3)(C1)C2)[C@H]1C[C@@H](O)c2cc(Cl)c(F)cc2O1 [Compound 627, (2R,4R)-6-chloro-7-fluoro-4-hydroxy-N-(4-{4-[5-(trifluoromethyl)pyridin-2-yl]-1H-pyrazol-1-yl}bicyclo[2.1.1]hexan-1-yl)-3,4-dihydro-2H-1-benzopyran-2-carboxamide]",< 10
11,"O=C(NC12CC(n3cc(-c4cnn(CC(F)(F)F)c4)cn3)(C1)C2)[C@H]1C[C@@H](O)c2cc(Cl)c(Cl)cc2O1 [Compound 565, (2R,4R)-6,7-dichloro-4-hydroxy-N-{3-[1′-(2,2,2-trifluoroethyl)-1H,1′H-[4,4′-bipyrazol]-1-yl]bicyclo[1.1.1]pentan-1-yl}-3,4-dihydro-2H-1-benzopyran-2-carboxamide]",< 10
12,"O=C(COc1ccc(Cl)c(F)c1)NC12CC(c3ccc(C(=O)N4CC(COC(F)(F)F)C4)nc3)(C1)C2 [Compound 600, 2-(4-chloro-3-fluorophenoxy)-N-[3-(6-{3-[(trifluoromethoxy)methyl]azetidine-1-carbonyl}pyridin-3-yl)bicyclo[1.1.1]pentan-1-yl]acetamide]",< 10
13,"O=C(CO[C@H]1C[C@@H](OC(F)(F)F)C1)NC12CC(NC(=O)[C@@H]3C[C@@H](O)c4cc(Cl)c(Cl)cc4O3)(C1)C2 [Compound 492, (2S,4R)-6,7-dichloro-4-hydroxy-N-[3-(2-{[(1s,3R)-3-(trifluoromethoxy)cyclobutyl]oxy}acetamido)bicyclo[1.1.1]pentan-1-yl]-3,4-dihydro-2H-1-benzopyran-2-carboxamide]",< 10
14,"O=C(NC12CC(n3cc(OCCCOC(F)(F)F)cn3)(C1)C2)[C@H]1C[C@@H](O)c2cc(Cl)c(F)cc2O1 [Compound 433, (2R,4R)-6-chloro-7-fluoro-4-hydroxy-N-(3-{4-[3-(trifluoromethoxy)propoxy]-1H-pyrazol-1-yl}bicyclo[1.1.1]pentan-1-yl)-3,4-dihydro-2H-1-benzopyran-2-carboxamide]",< 10
15,"O=C(NC12CC(n3cc(C(=O)N4CC(CC(F)F)C4)cn3)(C1)C2)[C@H]1C[C@@H](O)c2cc(Cl)ccc2O1 [Compound 377, (2R,4R)-6-chloro-N-(3-{4-[3-(2,2-difluoroethyl)azetidine-1-carbonyl]-1H-pyrazol-1-yl}bicyclo[1.1.1]pentan-1-yl)-4-hydroxy-3,4-dihydro-2H-1-benzopyran-2-carboxamide]",250 to 500
16,"O=C(NC12CC(n3cc(-c4ccc(OC(F)(F)F)cn4)cn3)(C1)C2)[C@@H]1C[C@@H](O)c2cc(C(F)(F)F)ccc2O1 [Compound 550, (2S,4R)-4-hydroxy-N-(3-{4-[5-(trifluoromethoxy)pyridin-2-yl]-1H-pyrazol-1-yl}bicyclo[1.1.1]pentan-1-yl)-6-(trifluoromethyl)-3,4-dihydro-2H-1-benzopyran-2-carboxamide]",< 10
17,"O=C(COc1ccc(Cl)c(F)c1)NC12CC(c3ccc(C(=O)N4CC(OCC(F)(F)F)C4)nc3)(C1)C2 [Compound 601, 2-(4-chloro-3-fluorophenoxy)-N-(3-{6-[3-(2,2,2-trifluoroethoxy)azetidine-1-carbonyl]pyridin-3-yl}bicyclo[1.1.1]pentan-1-yl)acetamide]",10 to 50
18,"O=C(CO[C@H]1C[C@@H](OC(F)(F)F)C1)NC12CC(NC(=O)[C@H]3C[C@@H](O)c4cc(Cl)ccc4O3)(C1)C2 (racemic) [Compound 114, rac-(2R,4R)-6-chloro-4-hydroxy-N-[3-(2-{[(1s,3s)-3-(trifluoromethoxy)cyclobutyl]oxy}acetamido)bicyclo[1.1.1]pentan-1-yl]-3,4-dihydro-2H-1-benzopyran-2-carboxamide]",< 10
19,"O=C(COc1ccc(Cl)c(F)c1)NC12CC(n3cc(C4CCN(CC(F)(F)F)CC4)cn3)(C1)C2 [Compound 608, 2-(4-chloro-3-fluorophenoxy)-N-(3-{4-[1-(2,2,2-trifluoroethyl)piperidin-4-yl]-1H-pyrazol-1-yl}bicyclo[1.1.1]pentan-1-yl)acetamide]",10 to 50
20,"COc1ccc2nn([C@H]3CC[C@H](NC(=O)COc4ccc(Cl)c(Cl)c4)CC3)cc2n1 [Compound 596, 2-(3,4-dichlorophenoxy)-N-[(1r,4r)-4-(5-methoxy-2H-pyrazolo[4,3-b]pyridin-2-yl)cyclohexyl]acetamide]",< 10
21,"O=C(NC12CCC(n3cc(C(=O)N4CC[C@H](OC(F)(F)F)C4)cn3)(CC1)CC2)[C@H]1C[C@@H](O)c2cc(Cl)ccc2O1 [Compound 331, (2R,4R)-6-chloro-4-hydroxy-N-(4-{4-[(3S)-3-(trifluoromethoxy)pyrrolidine-1-carbonyl]-1H-pyrazol-1-yl}bicyclo[2.2.2]octan-1-yl)-3,4-dihydro-2H-1-benzopyran-2-carboxamide]",< 10
22,"O=C(NC12CC(n3cnc(C(=O)N4CC(COC(F)(F)F)C4)c3)(C1)C2)[C@H]1C[C@@H](O)c2cc(Cl)ccc2O1 [Compound 368, (2R,4R)-6-chloro-4-hydroxy-N-[3-(4-{3-[(trifluoromethoxy)methyl]azetidine-1-carbonyl}-1H-imidazol-1-yl)bicyclo[1.1.1]pentan-1-yl]-3,4-dihydro-2H-1-benzopyran-2-carboxamide]",10 to 50
23,"O=C(COc1ccc(Cl)c(F)c1)NC12CC(c3ccc(C(=O)N4CC[C@H](OC(F)(F)F)C4)nc3)(C1)C2 [Compound 603, 2-(4-chloro-3-fluorophenoxy)-N-(3-{6-[(3S)-3-(trifluoromethoxy)pyrrolidine-1-carbonyl]pyridin-3-yl}bicyclo[1.1.1]pentan-1-yl)acetamide]",< 10
24,"O=C(NC12CC(c3ccc(C(=O)N4CC(COC(F)(F)F)C4)nc3)(C1)C2)[C@H]1C[C@@H](O)c2cc(Cl)ccc2O1 [Compound 537, (2R,4R)-6-chloro-4-hydroxy-N-[3-(6-{3-[(trifluoromethoxy)methyl]azetidine-1-carbonyl}pyridin-3-yl)bicyclo[1.1.1]pentan-1-yl]-3,4-dihydro-2H-1-benzopyran-2-carboxamide]",< 10
25,"O=C(NC12CC(n3cc(-c4ccc(C(F)(F)F)cn4)cn3)(C1)C2)[C@H]1C[C@@H](O)c2cc(Cl)c(Cl)cc2O1 [Compound 567, (2R,4R)-6,7-dichloro-4-hydroxy-N-(3-{4-[5-(trifluoromethyl)pyridin-2-yl]-1H-pyrazol-1-yl}bicyclo[1.1.1]pentan-1-yl)-3,4-dihydro-2H-1-benzopyran-2-carboxamide]",< 10
